Measured values published in patent publication US9204653B2, “5-fluoro pyrimidine derivatives” (DOW AGROSCIENCES LLC, priority 2008, dated 2015).
Where two headings read alike, the source gives them in different places.

Test system: Mycosphaerella graminicola; Anamorph: Septoria tritici; Bayer Code SEPTTR
Test: Leaf blotch of wheat, foliar fungicide treatment, one day protectant (1DP) or three day curative (3DC)
Format: in vivo, Septoria tritici on wheat plants (variety Yuma)
Conditions: Zymoseptoria tritici; for pest or weed control at 50 ppm / pest or weed control at 200 ppm: % disease control rating
[1] = 24 h, one day protectant (1DP), 25 ppm, rating of percent disease control, read-out: SETTTR 1DP 25 ppm
[2] = 24 h, one day protectant (1DP), rating of percent disease control, read-out: SEPTTR 1DP 100 ppm
[3] = 72 h, three day curative (3DC), 25 ppm, rating of percent disease control, read-out: SEPTTR 3DC 25 ppm
[4] = 72 h, three day curative (3DC), rating of percent disease control, read-out: SEPTTR 3DC 100 ppm
[5] = 24 h, one day protectant, 25 ppm, rating of percent disease control, read-out: SETTTR 1DP 25 ppm
[6] = 24 h, one day protectant, rating of percent disease control, read-out: SEPTTR 1DP 100 ppm
[7] = 72 h, three day curative, 25 ppm, rating of percent disease control, read-out: SEPTTR 3DC 25 ppm
[8] = 72 h, three day curative, rating of percent disease control, read-out: SEPTTR 3DC 100 ppm
[9] = 24 h, one day protectant (1DP), 25 ppm (first 1DP column), percent control rating, read-out: SETTTR 1DP 25 ppm
[10] = 24 h, one day protectant (1DP), 25 ppm as printed (second 1DP column), percent control rating, read-out: SETTTR 1DP 25 ppm
[11] = 72 h, three day curative (3DC), 25 ppm, percent control rating, read-out: SEPTTR 3DC 25 ppm
[12] = 72 h, three day curative (3DC), percent control rating, read-out: SEPTTR 3DC 100 ppm
[13] = 24 h, one day protectant (1DP), 25 ppm, percent disease control rating, read-out: SETTTR 1DP 25 ppm
[14] = 24 h, one day protectant (1DP), percent disease control rating, read-out: SEPTTR 1DP 100 ppm
[15] = 72 h, three day curative (3DC), 25 ppm, percent disease control rating, read-out: SEPTTR 3DC 25 ppm
[16] = 72 h, three day curative (3DC), percent disease control rating, read-out: SEPTTR 3DC 100 ppm

Compound `COc1cccc(COc2ncc(F)c(NC(=O)NCc3ccccc3F)n2)c1` [Compound 201] has a pest or weed control at 25 ppm [1] of 0 to 25%, a pest or weed control at 100 ppm [2] of 0 to 25% and a pest or weed control at 25 ppm [3] of 0 to 25%. It also gave a pest or weed control at 100 ppm [4] of 0 to 25%.

Work on `CCCNC(=S)Nc1nc(OCc2ccccc2)ncc1F` [Compound 678] yielded a pest or weed control at 25 ppm [5] of 0 to 25%, a pest or weed control at 100 ppm [6] of 76 to 100% and a pest or weed control at 25 ppm [7] of 26 to 50%. For the same compound, the pest or weed control at 100 ppm [8] was 76 to 100%.

`COc1ncc(F)c(NNc2nccc(C(F)(F)F)n2)n1` [Compound 1049] gave a pest or weed control at 25 ppm [9] of 0 to 25%, a pest or weed control at 25 ppm [10] of 0 to 25% and a pest or weed control at 25 ppm [11] of 26 to 50%. For the same compound, the pest or weed control at 100 ppm [12] was 26 to 50%.

Work on `Nc1nc(OCc2cccs2)ncc1F` [Compound 213] yielded a pest or weed control at 25 ppm [1] of 76 to 100%, a pest or weed control at 100 ppm [2] of 76 to 100% and a pest or weed control at 25 ppm [3] of 76 to 100%. The pest or weed control at 100 ppm [4] was 76 to 100%.

Work on `CCOC(=O)Nc1nc(OCc2cccc(OC)c2)ncc1F` [Compound 276] yielded a pest or weed control at 25 ppm [1] of 76 to 100%, a pest or weed control at 100 ppm [2] of 76 to 100% and a pest or weed control at 25 ppm [3] of 76 to 100%. For the same compound, the pest or weed control at 100 ppm [4] was 76 to 100%.

With `O=C(NCc1ccco1)Nc1nc(O)ncc1F` [Compound 981] the pest or weed control at 25 ppm [9] was 0 to 25%, the pest or weed control at 25 ppm [10] was 0 to 25% and the pest or weed control at 25 ppm [11] was 0 to 25%. For the same compound, the pest or weed control at 100 ppm [12] was 0 to 25%.

Work on `CCOC(=O)COC(=O)Nc1nc(OCc2ccc(C)cc2)ncc1F` [Compound 176] yielded a pest or weed control at 25 ppm [13] of 51 to 75%, a pest or weed control at 100 ppm [14] of 76 to 100% and a pest or weed control at 25 ppm [15] of 76 to 100%. The pest or weed control at 100 ppm [16] was 76 to 100%.

Work on `CN(C)/C=N/c1nc(OC(=O)c2ccc(Cl)cc2)ncc1F` [Compound 585] yielded a pest or weed control at 25 ppm [5] of 76 to 100%, a pest or weed control at 100 ppm [6] of 76 to 100% and a pest or weed control at 25 ppm [7] of 76 to 100%. For the same compound, the pest or weed control at 100 ppm [8] was 76 to 100%.

For `COc1cccc(COc2ncc(F)c(N)n2)c1OC` [Compound 609], the pest or weed control at 25 ppm [5] was 76 to 100%, the pest or weed control at 100 ppm [6] was 76 to 100% and the pest or weed control at 25 ppm [7] was 76 to 100%. The pest or weed control at 100 ppm [8] was 76 to 100%.

`COc1ccccc1COc1ncc(F)c(NC(C)=O)n1` [Compound 309] was tested, and the pest or weed control at 25 ppm [1] was 76 to 100%, the pest or weed control at 100 ppm [2] was 76 to 100% and the pest or weed control at 25 ppm [3] was 76 to 100%. For the same compound, the pest or weed control at 100 ppm [4] was 76 to 100%.

`Fc1ccccc1CNc1nc(OC2CCCCC2)ncc1F` [Compound 803] showed a pest or weed control at 50 ppm (24 h, one day protectant) of 0 to 25% and a pest or weed control at 200 ppm (24 h, one day protectant) of 51 to 75%.

For `Nc1nc(OCc2ccccc2Cn2cncn2)ncc1F` [Compound 383], the pest or weed control at 25 ppm [1] was 0 to 25%, the pest or weed control at 100 ppm [2] was 0 to 25% and the pest or weed control at 25 ppm [3] was 26 to 50%. The pest or weed control at 100 ppm [4] was 0 to 25%.

`CN(C)/C=N/c1nc(OS(C)(=O)=O)ncc1F` [Compound 131] gave a pest or weed control at 25 ppm [13] of 26 to 50%, a pest or weed control at 100 ppm [14] of 51 to 75% and a pest or weed control at 25 ppm [15] of 26 to 50%. For the same compound, the pest or weed control at 100 ppm [16] was 76 to 100%.

`COc1ccc(COc2ncc(F)c(NSc3ccccc3[N+](=O)[O-])n2)cc1F` [Compound 200] was tested, and the pest or weed control at 25 ppm [1] was 0 to 25%, the pest or weed control at 100 ppm [2] was 26 to 50% and the pest or weed control at 25 ppm [3] was 0 to 25%. For the same compound, the pest or weed control at 100 ppm [4] was 0 to 25%.

With `Fc1cnc(OCc2ccco2)nc1NCc1ccc(Cl)nc1` [Compound 873] the pest or weed control at 50 ppm (24 h, one day protectant) was 0 to 25% and the pest or weed control at 200 ppm (24 h, one day protectant) was 0 to 25%.

With `CC(Oc1ncc(F)c(N)n1)c1ccc(C(C)(C)C)cc1Cl` (stereo not drawn) [Compound 173] the pest or weed control at 25 ppm [13] was 51 to 75%, the pest or weed control at 100 ppm [14] was 76 to 100% and the pest or weed control at 25 ppm [15] was 0 to 25%. For the same compound, the pest or weed control at 100 ppm [16] was 51 to 75%.

Work on `CC(C)CCOc1ncc(F)c(N)n1` [Compound 731] yielded a pest or weed control at 25 ppm [5] of 0 to 25%, a pest or weed control at 100 ppm [6] of 0 to 25% and a pest or weed control at 25 ppm [7] of 0 to 25%. It also gave a pest or weed control at 100 ppm [8] of 0 to 25%.

`COc1cc(Cl)c(COc2ncc(F)c(N)n2)cc1OC` [Compound 350] was tested, and the pest or weed control at 25 ppm [1] was 76 to 100%, the pest or weed control at 100 ppm [2] was 76 to 100% and the pest or weed control at 25 ppm [3] was 76 to 100%. It also gave a pest or weed control at 100 ppm [4] of 76 to 100%.

Compound `Fc1ccc(COc2ncc(F)c(NCc3ccccc3F)n2)cc1F` [Compound 825] has a pest or weed control at 50 ppm (24 h, one day protectant) of 51 to 75% and a pest or weed control at 200 ppm (24 h, one day protectant) of 76 to 100%.

Work on `COc1ccc(S(=O)(=O)Oc2ncc(F)c(N)n2)cc1` [Compound 660] yielded a pest or weed control at 25 ppm [5] of 76 to 100%, a pest or weed control at 100 ppm [6] of 76 to 100% and a pest or weed control at 25 ppm [7] of 26 to 50%. For the same compound, the pest or weed control at 100 ppm [8] was 0 to 25%.

For `N#Cc1cccc(COc2ncc(F)c(NCOCc3ccccc3)n2)c1` [Compound 167], the pest or weed control at 25 ppm [13] was 0 to 25%, the pest or weed control at 100 ppm [14] was 26 to 50% and the pest or weed control at 25 ppm [15] was 0 to 25%. For the same compound, the pest or weed control at 100 ppm [16] was 0 to 25%.
